The text below walks through data of the NIST ThermoML archive (doi:10.1021/acs.jced.8b00070).

For this data set the following is noted: 101.3 kPa, Liquid, Vibrating tube method.

± gives the expanded uncertainty stated by the source.

As for `O` [water], the mass density was 988 ± 0.2 kg/m3 (323.15 K), 985.7 ± 0.2 kg/m3 (328.15 K) and 983.2 ± 0.2 kg/m3 (333.15 K).

Usually mass density stands for mass per unit of volume.
